As usually defined, the CC50 is the concentration giving 50% cytotoxicity. A high value points to lower toxicity to the cells. In general, EC50 refers to the midpoint of the concentration-response curve. As a reminder, the melting point is the temperature, or range, at which the solid turns liquid.

Data set [1] can be described thus: CC50 assay in Huh-7 HCV replicon cells (CellTiter-Glo). Type of data set: cell-based, human. The note with it: human, 50% cytostatic concentration. Put shortly: (§1)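 Huh-7 cells carrying an HCV replicon, 6000 per well, were exposed to 3-fold serial compound dilutions (0.5% DMSO final where DMSO was used) for 3 days at 37 °C. EC50 was read by luciferase after cell lysis; CC50 was taken as 50% inhibition of cell growth.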
In general terms: A replicon is a self-replicating genome or part of one, used to study replication in cells.

The test system of data set [2] is wild-type HIV-1 strain IIIB. Put plainly: HIV-1 assay (XTT, HIV-induced cytopathic effect in MT-2 cells). In kind it is cell-based. The note with it: for inhibition at 5 µM: read-out: MT2 HIV % inhib. @ 5 μM. How it is done: This assay is based on the quantification of the HIV-induced cytopathic effect by a calorimetric detection of the viability of virus-infected cells in the presence or absence of tested inhibitors. The HIV-induced cell death was determined by using as a metabolic substrate 2,3-bis(2-methoxy-4-nitro-5-sulfophenyl)-2H-tetrazolium-5-carboxanilide (hereinafter referred as XTT) which was converted only by live cells into a product with specific absorption characteristics, as described by Weislow et al., J. Natl. Cancer Inst. (1989) 81:577.
The assay protocol for the determination of EC50 includes the following steps: • 1. MT-2 cells were maintained in RPMI-1640 medium supplemented with 10% fetal bovine serum, glutamine and antibiotics. • 2. Cells were infected by the wild-type HIV-1 strain IIIB (ABI, Columbia, Md.) for 3 hours at 37° C. using a multiplicity of infection (MOI) of 0.01. • 3. Prepare a set of solutions containing various concentrations of the tested inhibitor by making 5-fold serial dilutions in 96-well plate (100 μl/well). Alternatively, test single drug concentration (100 μl/well). Distribute the infected cells into the 96-well plate containing the inhibitors (20,000 cells in 100 μl/well). Include the following control samples, untreated infected cells (100% cell death) and control drug-treated infected cells (full protection). • 4. Incubate the cells for 5 days at 37° C. • 5. Prepare XTT solution (6 mL per assay plate) at a concentration of 2 mg/mL in a phosphate-buffered saline at pH 7.4. Heat the solution in water-bath for 10 minutes at 56° C. Add 50 μl of N-methylphenazonium methasulfate (5 μg/mL) per 6 mL of XTT solution. • 6. Remove 100 μl media from each well on the assay plate. • 7. Add 100 μl of the XTT substrate solution per well and incubate at 37° C. for 45 to 60 minutes in a CO2 incubator. • 8. Add 20 μl of 2% Triton X-100 per well to inactivate the virus. • 9. Read the absorbance at 450 nm with subtracting off the background absorbance at 650 nm. • 10. Plot the percentage absorbance relative to untreated control and estimate the EC50 value as drug concentration resulting in a 50% protection of the infected cells. Alternatively, calculate the percentage of inhibition for a fixed concentration, relative to the full protection with the control drug.
This assay has been performed on a set of compounds of the invention, and results are reported in table 8 below, also indicating the nature of substituents being present in positions 4 and 6 of the pyrido[3,2-d]pyrimidine derivatives of the invention (all being amino-substituted in position 2).
For orientation: Formazan colour is commonly taken as a measure of viable cells.

For data set [3], the system named is HCV replicon. Description: Anti-HCV assay / replicon assay (EC50, luciferase read-out). In kind it is cell-based, hepatitis C virus (HCV). The note with it: for CC50/EC50: CC50/EC50 ratio (selectivity index). In short, it runs like this:
as §1

The subject of data set [4] is Huh-7 HCV replicon cells. Description: CC50 assay in Huh-7 HCV replicon cells (CellTiter-Glo). Type of data set: cell-based, human. The note with it: 3 days, 50% cytostatic concentration. In short, it runs like this: as §1
Setting [5] is: Human immunodeficiency virus 1, MT2, 120 h, 5 μM, MT-2 cells infected with HIV-1 IIIB, 5 days, XTT.
The mark [6] stands for this setting: Hepatitis C virus, 72 h, human hepatoma Huh-7 cell line harbouring a HCV replicon, 3 days, luciferase luminescence, read-out: EC50.

Read-outs that look alike come from different tables or passages of the source.

Consider `CC(=O)N1CCN(c2nc(N)nc3ccc(-c4ccc(F)cc4)nc23)CC1` [Example 320, 2-amino-4-(N-acetylpiperazino)-6-(4-fluorophenyl)-pyrido[3,2-d]pyrimidine], for which the CC50 at 3 days in data set [1] amounted to 19.9 µM. For the same compound, the inhibition at 5 µM in data set [2] (setting [5]) was 12%. In addition, the CC50/EC50 in data set [3] is listed as 87. Besides, the EC50 in data set [3] (setting [6]) was found to be 230 nM.
Compound `Nc1nc(OCc2ccccc2)c2nc(-c3cccc(F)c3)ccc2n1` [Example 210, 2-amino-4-benzyloxy-6-(m-fluorophenyl)-pyrido[3,2-d]pyrimidine] displayed a CC50 at 3 days in data set [1] of 18.8 µM. The inhibition at 5 µM in data set [2] (Human immunodeficiency virus 1, IIIB, MT2, 120 h) was determined as 5%. In addition, the CC50/EC50 in data set [3] turned out to be 85. Besides, the EC50 in data set [3] (Hepatitis C virus, Huh-7, 72 h) came out at 220 nM.
In turn, “6-(3,4-difluoro-phenyl)-4-ethoxy-pyrido[3,2-d]pyrimidin-2-ylamine [Example 460]” yielded a CC50 in data set [4] of 16.3 µM. Besides, the “MT2 HIV % inhib. @ 5 μM” value in data set [2] (5 μM, MT-2 cells infected with HIV-1 IIIB, 5 days, XTT) is recorded as 11%. In addition, the CC50/EC50 in data set [3] amounted to 145. Moreover, the EC50 in data set [3] (human hepatoma Huh-7 cell line harbouring a HCV replicon, 3 days, luciferase luminescence, read-out: EC50) amounted to 113 nM.
`COCCOc1nc(N)nc2ccc(-c3ccc(F)cc3)nc12` [Example 305, 2-amino-4-(2-methoxyethoxy)-6-(4-fluorophenyl)-pyrido[3,2-d]pyrimidine] returned a melting point of 204 °C. The midpoint of cytotoxicity in data set [4], the CC50, lay at 50.1 µM. Also, in data set [3], the CC50/EC50 worked out at 2863. In data set [3] (setting [6]), the half-maximal effective concentration (EC50) was found to be 18 nM.
Regarding `COc1ccc(-c2ccc3nc(N)nc(N4CCN(C)CC4)c3n2)cc1OC` [Example 36, 2-amino-4-(N-methyl-piperazino)-6-(3,4-dimethoxyphenyl)-pyrido[3,2-d]pyrimidine], the inhibition at 5 µM in data set [2] (setting [5]) was found to be 3%.
The compound `CCOCCOc1nc(N)nc2ccc(-c3ccc(F)cc3)nc12` [Example 304, 2-amino-4-(2-ethoxyethoxy)-6-(4-fluorophenyl)-pyrido[3,2-d]pyrimidine] had a melting point of 192 °C. This compound also showed a CC50 at 3 days in data set [1] of 37.5 µM. For the same compound, in data set [2] (setting [5]), the inhibition at 5 µM worked out at 9%. For the same compound, the CC50/EC50 in data set [3] was determined as 852. Moreover, the EC50 in data set [3] (setting [6]) was determined as 44 nM.
As for `CC(C)Oc1nc(N)nc2ccc(-c3ccc(F)cc3)nc12` [Example 286, 2-amino-4-isopropoxy-6-(p-fluorophenyl)-pyrido[3,2-d]pyrimidine], it took 50.1 µM to reach half-maximal cytotoxicity in data set [4] (CC50). Also, in data set [2] (setting [5]), the inhibition at 5 µM was determined as 11%. Also, in data set [3], the CC50/EC50 is reported as 1113. The 50% effective concentration (EC50) in data set [3] (setting [6]) came out at 45 nM.
`CC(=O)Nc1ccc(-c2ccc3nc(N)nc(N4CCN(C(C)=O)CC4)c3n2)cc1` [Example 340, 2-amino-4-(N-acetylpiperazino)-6-(p-acetamidophenyl)-pyrido(3,2-d)pyrimidine]: the inhibition at 5 µM in data set [2] (setting [5]) is 4%.
Take `CCOCCOc1nc(N)nc2ccc(-c3cccc(F)c3)nc12` [Example 303, 2-amino-4-(2-ethoxyethoxy)-6-(3-fluorophenyl)-pyrido[3,2-d]pyrimidine]: the melting point stood at 165 °C. Besides, in data set [4], the CC50 was determined as 50.1 µM. Moreover, the inhibition at 5 µM in data set [2] (setting [5]) came to 8%. For the same compound, the CC50/EC50 in data set [3] was 89. The EC50 in data set [3] (setting [6]) was determined as 560 nM.
On to `CCOc1nc(N)nc2ccc(-c3ccc(NC(C)=O)cc3)nc12` [Example 353, 2-amino-4-ethoxy-6-(p-acetamidophenyl)pyrido(3,2-d)pyrimidine], for which the CC50 at 3 days in data set [1] is 25.1 µM. In addition, the inhibition at 5 µM in data set [2] (setting [5]) was determined as 4%. The CC50/EC50 in data set [3] is 56. Further, the EC50 in data set [3] (setting [6]) was 450 nM.
For the compound `Nc1nc(N2CCOCC2)c2nc(-c3ccncc3)ccc2n1` [Example 226, 2-amino-4-morpholino-6-(4-pyridinyl)-pyrido[3,2-d]pyrimidine], the inhibition at 5 µM in data set [2] (setting [5]) was 9%.
Consider `CCOCCOc1nc(N)nc2ccc(-c3ccccc3F)nc12` [Example 302, 2-amino-4-(2-ethoxyethoxy)-6-(2-fluorophenyl)-pyrido[3,2-d]pyrimidine], for which the melting point is 163 °C.
In data set [4], `CCOc1nc(N)nc2ccc(-c3ccc(F)cc3)nc12` [Example 281, 2-amino-4-ethoxy-6-(p-fluorophenyl)pyrido[3,2-d]-pyrimidine] returned a CC50 of 50.1 µM. Moreover, in data set [2] (setting [5]), the inhibition at 5 µM turned out to be 17%. In addition, the CC50/EC50 in data set [3] is reported as 856. In addition, the EC50 in data set [3] (setting [6]) amounted to 59 nM.
In data set [1], `Nc1nc(OCc2ccccc2)c2nc(-c3ccc(F)cc3)ccc2n1` [Example 211, 2-amino-4-benzyloxy-6-(p-fluorophenyl)-pyrido[3,2-d]pyrimidine] gave a CC50 at 3 days of 37.5 µM. In addition, the inhibition at 5 µM in data set [2] (setting [5]) came to 17%. In data set [3], the CC50/EC50 is recorded as 179. Besides, the EC50 in data set [3] (setting [6]) was 210 nM.

These data come from patent publication US8232278B2 (Gilead Sciences, Inc., priority 2005, dated 2012).
